Reference: patent publication US20090221056A1, “Pathogen-Detecting Cell Preservation Systems” (priority 2005, published 2009)
Entries after “also recorded” stand apart in the source; their conditions may differ. The star is where a group is joined. Cbz = O=C(OCc1ccccc1)*; CH2F = FC*

Tests used:
CANARY B cells = assay: Viability of CANARY cells after storage with chemical additives; assay type: cell-based; conditions: storage at room temperature (1-3 weeks), compared to cells without additive
[1] = test system: CANARY B cells (expressing a receptor specific for Yersinia pestis); assay type: cell-based
CANARY cells = assay: Toxicity of chemical additives to CANARY cells; conditions: at 50 μM

| Substance | viability of cells stored at room temperature (CANARY B cells) | viability of cells stored at room temperature (CANARY B cells; listed as Tunicamycin) | activity (antigen detection) of cells stored at room temperature [1] | beneficial effect on stored cells (viability and/or activity) [1] | benefit of treatment to stored cells [1] | toxicity of additive (CANARY cells) |
| --- | --- | --- | --- | --- | --- | --- |
| tunicamycin | improved both viability and activity | increases both cell viability and activity | increases both cell viability and activity; also recorded: retained detection sensitivity for Yersinia pestis; also recorded: improved both viability and activity | beneficial effects | detrimental |  |
| Cbz-LEHD-CH2F |  |  |  |  |  | toxic |
| Cbz-WEHD-CH2F |  |  |  |  |  | toxic |
